Measured values as given in patent publication US20260083851A1 (AVILAR THERAPEUTICS, INC., priority 2022, published 2026).
Read-outs that look alike come from different tables or passages of the source. Starred links: 1 amine or outer side, 2 acyl side, 3 side chain; linkers in the order of their positions; H or OH if unused. Positions of bridges follow the written chain, without caps; N, C: chain ends. Non-standard residues stand in square brackets, D forms with d. Residues, ends and D or L forms follow the SMILES beside them. ξ: configuration not given here. *: point of attachment. X1 = O=C(CCOCC(COCCC(=O)NCCOCCOCCOCCOCC1OCC(Nc2cncc(C(F)(F)F)n2)C(O)C1O)NCC(=O)*)NCCOCCOCCOCCOCC1OCC(Nc2cncc(C(F)(F)F)n2)C(O)C1O; ξPro(4ξ-NH2) = O=C(C1CC(N[*:3])CN1[*:1])[*:2]

Assays:
[1] = biological target: T1, ASGPR (Homo sapiens, UniProt P07306); experiment: ASGPR SPR binding
T1 construct: biotin (biotinylated)
T1 sequence (P07306 1-291): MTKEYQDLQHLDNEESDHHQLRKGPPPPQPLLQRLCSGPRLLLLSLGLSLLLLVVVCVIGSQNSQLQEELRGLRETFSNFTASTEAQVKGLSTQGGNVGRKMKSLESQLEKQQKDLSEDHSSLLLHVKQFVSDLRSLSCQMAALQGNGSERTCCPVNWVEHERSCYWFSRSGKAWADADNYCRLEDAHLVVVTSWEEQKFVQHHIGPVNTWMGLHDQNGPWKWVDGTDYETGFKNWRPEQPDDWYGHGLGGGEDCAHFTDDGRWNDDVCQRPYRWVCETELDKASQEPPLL

[2] = biological target: IgG; experiment: IgG SPR binding; conditions: second table, read-out: IgG KD
[3] = test system: HepG2 cells; experiment: Cellular uptake assay (high-content imaging); type: cell-based, human; conditions: 100 nM AF488-labeled antibody, 6 hours at 37° C., the 25th table, read-out: Uptake EC50
Text: The cellular uptake assay is designed to measure compound-mediated cellular uptake of fluorescently labeled antibody following ternary complex formation with the ASGPR receptor and endocytosis of the entire complex into cells. The optimal concentration of compound will result in the maximum number of cells with intracellular antibody and is represented as the peak ratio of antibody-positive cells over the total number of cells. As with the ternary complex formation assay, too much or too little compound will result in suboptimal complex formation and fewer cells will have measurable intracellular fluorescence.
Human IgG (Sigma-Aldrich, 14506) was covalently labeled with Alexa Fluor 488 using the Alexa Fluor™ 488 Protein Labeling Kit (Thermo Fisher, A10235) following the manufacturer's instructions. HepG2 cells were plated in DMEM supplemented with 10% FBS at 5,000 cells per well in a 96-well microtiter plate and incubated for approximately 18 hours at 37° C./5% CO2. For studies using human IgG, 100 nM AF488-labeled human IgG antibodies and serial dilutions of IgG-based degrader (0.1% DMSO final concentration) were added to the cells and the mixture was incubated at 37° C. for 6 hours. For studies using DNP, 100 nM AF488-labeled DNP antibodies and serial dilutions of DNP-based degrader (0.1% DMSO final concentration) were added to the cells and the mixture was incubated at 37° C. for 6 hours. HepG2 cells were fixed in 100% methanol at −20° C. for 20 min, washed 3× with PBS, then stained with DAPI (Thermo, Cat #H3570). HepG2 cells were imaged for DAPI and Alexa Fluor 488 using the Operetta CLS, high-content analysis system (PerkinElmer). Data is presented as the ratio of the number of cells positive for hIgG or DNP (AF-488 fluorescence) over the total cell number (measured by DAPI).

[4] = biological target: T2, ASGPR receptor on HepG2 cells (ternary complex with AF488-labeled antibody) (Homo sapiens, UniProt P07306); experiment: Ternary complex formation assay (flow cytometry, cell-associated AF488 fluorescence); type: cell-based
T2 construct: host or cells: HepG2
T2 sequence (P07306 1-291): T1 sequence (P07306 1-291)
T2 sequence (P07307 1-311 partner): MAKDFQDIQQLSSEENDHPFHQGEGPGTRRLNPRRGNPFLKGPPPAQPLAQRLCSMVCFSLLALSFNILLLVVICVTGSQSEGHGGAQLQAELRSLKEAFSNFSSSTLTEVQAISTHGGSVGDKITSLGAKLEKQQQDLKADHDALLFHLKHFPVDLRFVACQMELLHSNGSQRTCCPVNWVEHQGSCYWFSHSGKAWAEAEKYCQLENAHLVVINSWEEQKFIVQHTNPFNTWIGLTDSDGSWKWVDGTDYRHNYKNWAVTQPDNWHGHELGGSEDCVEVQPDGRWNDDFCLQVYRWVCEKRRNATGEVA
Protocol: Human IgG (Sigma-Aldrich, 14506) was covalently labeled with Alexa Fluor 488 using the Alexa Fluor™ 488 Protein Labeling Kit (Thermo Fisher, A10235) following the manufacturer's instructions. HepG2 cells (ATCC, HB-8065) were cultured to about 70% confluence and harvested by trypsinization. Single cell suspensions of HepG2 cells were plated in 96 well plates at 1×10^5 cells/well in cell culture media (DMEM supplemented with 10% FBS) and placed at 4° C. For studies using human IgG, cells were incubated with 100 nM AF488-labeled anti-human IgG and serial dilutions of IgG-based degrader for 1 hour at 4° C. For studies using DNP, cells were incubated with 100 nM AF488-labeled polyclonal rabbit anti-dinitrophenyl (DNP) antibodies (ThermoFisher) and serial dilutions of DNP-based degrader for 1 hour at 4° C. After washing once with ice-cold PBS containing 0.1% BSA and 0.1% sodium azide, cells were resuspended in 150 uL PBS+0.1% BSA and cell-associated AF488 fluorescence was measured by flow cytometry using the iQue® Screener PLUS Flow Cytometer (IntelliCyt). […]

[5] = second table, read-out: ASGPR KD
[6] = 100 nM AF488-labeled antibody, 1 hour at 4° C., the 25th table, class symbols, read-out: TCF EC50

## CC(C)C[C@@H]1NC(=O)[C@H](Cc2cnc[nH]2)NC(=O)[C@H](Cc2c[nH]c3ccccc23)NC(=O)[C@H](C)NC(=O)[C@@H]2CSSC[C@H](NC(=O)[C@H](Cc3c[nH]c4ccccc34)NC(=O)[C@H](C(C)C)NC(=O)[C@H](CC(C)C)NC(=O)[C@H](CCC(=O)O)NC(=O)CNC1=O)C(=O)N[C@@H]([C@@H](C)O)C(=O)N1CCC[C@@H]1C(=O)N1C[C@H](NC(=O)COCCOCC(=O)NC[C@H]3OC[C@H](Nc4cncc(C(F)(F)F)n4)[C@@H](O)[C@H]3O)C[C@H]1C(=O)N[C@@H](CC(=O)O)C(=O)N2 [compound 96]
[1]; [5]
  Kd: < 100 nM
[2]
  Kd: < 100 nM
[3]; Homo sapiens, class symbols
  EC50: < 100 nM

## CC(C)C[C@@H]1NC(=O)[C@H](Cc2cnc[nH]2)NC(=O)[C@H](Cc2c[nH]c3ccccc23)NC(=O)[C@H](C)NC(=O)[C@@H](NC(=O)[C@H](CC(=O)O)NC(=O)CCOCCOCCOCCOCCNC(=O)CCCc2cn(CCCCCC(=O)NC(COCCC(=O)NCCOCCOCCOCCOC[C@H]3CO[C@H](Nc4cncc(C(F)(F)F)n4)[C@@H](O)[C@H]3O)(COCCC(=O)NCCOCCOCCOCCOC[C@H]3OC[C@H](Nc4nccc(C(F)(F)F)n4)[C@@H](O)[C@H]3O)COCCC(=O)NCCOCCOCCOCCOC[C@H]3OC[C@H](Nc4nccc(C(F)(F)F)n4)[C@@H](O)[C@H]3O)nn2)CSSC[C@@H](C(=O)N[C@H](C(N)=O)[C@@H](C)O)NC(=O)[C@H](Cc2c[nH]c3ccccc23)NC(=O)[C@H](C(C)C)NC(=O)[C@H](CC(C)C)NC(=O)[C@H](CCC(=O)O)NC(=O)CNC1=O [compound 94]
[1]; [5]
  Kd: < 100 nM
[4]; [6]
  EC50: < 100 nM
[3]; class symbols
  EC50: < 100 nM

## CC(C)C[C@@H]1NC(=O)[C@H](Cc2cnc[nH]2)NC(=O)[C@H](Cc2c[nH]c3ccccc23)NC(=O)[C@H](C)NC(=O)[C@@H]2CSSC[C@H](NC(=O)[C@H](Cc3c[nH]c4ccccc34)NC(=O)[C@H](C(C)C)NC(=O)[C@H](CC(C)C)NC(=O)[C@H](CCC(=O)O)NC(=O)CNC1=O)C(=O)N[C@@H]([C@@H](C)O)C(=O)N1CCC[C@@H]1C(=O)N1C[C@@H](NC(=O)c3ccc4c(c3)C(=O)c3cc(C(=O)NC[C@H]5OC[C@H](Nc6cncc(C(F)(F)F)n6)[C@@H](O)[C@H]5O)ccc3-4)C[C@H]1C(=O)N[C@@H](CC(=O)O)C(=O)N2 [compound 40]
[2]
  Kd: < 100 nM
[3]; Homo sapiens, class symbols
  EC50: 100 to 500 nM

## CC(C)C[C@@H]1NC(=O)[C@H](Cc2cnc[nH]2)NC(=O)[C@H](Cc2c[nH]c3ccccc23)NC(=O)[C@H](C)NC(=O)[C@@H]2CSSC[C@H](NC(=O)[C@H](Cc3c[nH]c4ccccc34)NC(=O)[C@H](C(C)C)NC(=O)[C@H](CC(C)C)NC(=O)[C@H](CCC(=O)O)NC(=O)CNC1=O)C(=O)N[C@@H]([C@@H](C)O)C(=O)N1CCC[C@@H]1C(=O)N1C[C@@H](NC(=O)CCOCCOCCOCCOCCNC(=O)CCCc3cn(CCCCCC(=O)NC(COCCC(=O)NCCO[C@@H]4O[C@H](CO)[C@H](O)[C@H](O)[C@H]4Nc4cncc(C(F)(F)F)n4)COCCC(=O)NCCO[C@@H]4O[C@H](CO)[C@H](O)[C@H](O)[C@H]4Nc4cncc(C(F)(F)F)n4)nn3)C[C@H]1C(=O)N[C@@H](CC(=O)O)C(=O)N2 [compound 84]
[4]; [6]
  EC50: < 100 nM
[3]; class symbols
  EC50: < 100 nM

## CC(C)C[C@@H]1NC(=O)[C@H](Cc2cnc[nH]2)NC(=O)[C@H](Cc2c[nH]c3ccccc23)NC(=O)[C@H](C)NC(=O)[C@@H](NC(=O)[C@H](CC(=O)O)NC(=O)CCOCCCCOCCCCOCCCCOCCNC(=O)CCCc2cn(CCCCCC(=O)NC(COCCC(=O)NCCOCCOCCOCCOC[C@H]3OC[C@H](Nc4nccc(C(F)(F)F)n4)C[C@H]3O)COCCC(=O)NCCOCCOCCOCCOC[C@H]3OC[C@H](Nc4nccc(C(F)(F)F)n4)C[C@H]3O)nn2)CSSC[C@@H](C(=O)N[C@H](C(N)=O)[C@@H](C)O)NC(=O)[C@H](Cc2c[nH]c3ccccc23)NC(=O)[C@H](C(C)C)NC(=O)[C@H](CC(C)C)NC(=O)[C@H](CCC(=O)O)NC(=O)CNC1=O [compound 92]
[1]; [5]
  Kd: > 1000 nM
[4]; [6]
  EC50: > 1000 nM
[3]; class symbols
  EC50: > 1000 nM

## COC1O[C@H](Cn2cc(CCCC(=O)N[C@H]3C[C@H]4C(=O)N[C@@H](CC(=O)O)C(=O)N[C@H]5CSSC[C@H](NC(=O)[C@H](Cc6c[nH]c7ccccc67)NC(=O)[C@H](C(C)C)NC(=O)[C@H](CC(C)C)NC(=O)[C@H](CCC(=O)O)NC(=O)CNC(=O)[C@H](CC(C)C)NC(=O)[C@H](Cc6cnc[nH]6)NC(=O)[C@H](Cc6c[nH]c7ccccc67)NC(=O)[C@H](C)NC5=O)C(=O)N[C@@H]([C@@H](C)O)C(=O)N5CCC[C@@H]5C(=O)N4C3)nn2)[C@H](O)[C@H](O)[C@H]1NC(C)=O (stereo partly drawn) [compound 80]
[4]; 100 nM AF488-labeled antibody, 1 hour at 4° C., the 25th table, numeric bounds, nM from footnote, read-out: TCF EC50
  EC50: > 4360 nM
[3]; Homo sapiens, numeric bounds, nM from footnote
  EC50: > 10000 nM

## CC(C)CC1NC(=O)C(C)NC(=O)CNC(=O)C(CC(C)C)NC(=O)C(Cc2cnc[nH]2)NC(=O)C(Cc2c[nH]c3ccccc23)NC(=O)C(C)NC(=O)C2CSSCC(NC(=O)C(Cc3c[nH]c4ccccc34)NC(=O)C(C(C)C)NC1=O)C(=O)NC(C(C)O)C(=O)N1CCCC1C(=O)N1CC(NC(=O)CNC(COCCC(=O)NCCOCCOCCOCCOCC3OCC(Nc4cncc(C(F)(F)F)n4)C(O)C3O)COCCC(=O)NCCOCCOCCOCCOCC3OCC(Nc4cncc(C(F)(F)F)n4)C(O)C3O)CC1C(=O)NC(C)C(=O)N2 (stereo not drawn) [compound 71] (cyclo(GALVWCTP[ξPro(4ξ-NH2)](X1)ACAWHL); disulfide 6-11; configuration not given here)
[1]; read-out: ASGPR KD, second table
  Kd: < 100 nM
[2]
  Kd: < 100 nM
[4]; read-out: TCF EC50, 100 nM AF488-labeled antibody, 1 hour at 4° C., the 25th table, class symbols
  EC50: < 100 nM

## CC(C)CC1NC(=O)C(Cc2cnc[nH]2)NC(=O)C(Cc2c[nH]c3ccccc23)NC(=O)C(C)NC(=O)C2CSSCC(NC(=O)C(Cc3c[nH]c4ccccc34)NC(=O)C(C(C)C)NC(=O)C(CC(C)C)NC(=O)C(CCC(=O)O)NC(=O)CNC1=O)C(=O)NC(C(C)O)C(=O)N1CCCC1C(=O)N1CC(NC(=O)CCOCCOCCOCCOCCNC(=O)CCCc3cn(CCCCCC(=O)NC(COCCC(=O)NCCOCCOCCOCCOCC4OCC(Nc5cncc(C(F)(F)F)n5)C(O)C4O)COCCC(=O)NCCOCCOCCOCCOCC4OCC(Nc5cncc(C(F)(F)F)n5)C(O)C4O)nn3)CC1C(=O)NC(CC(=O)O)C(=O)N2 (stereo not drawn) [compound 82]
[1]; [5]
  Kd: < 100 nM
[2]
  Kd: < 100 nM
[4]; [6]
  EC50: < 100 nM

## CC(C)CC1NC(=O)C(Cc2cnc[nH]2)NC(=O)C(Cc2c[nH]c3ccccc23)NC(=O)C(C)NC(=O)C2CSSCC(NC(=O)C(Cc3c[nH]c4ccccc34)NC(=O)C(C(C)C)NC(=O)C(CC(C)C)NC(=O)C(CCC(=O)O)NC(=O)CNC1=O)C(=O)NC(C(C)O)C(=O)N1CCCC1C(=O)N1CC(NC(=O)CCCc3cn(CCCCCC(=O)NC(COCCC(=O)NCCOCC4OCC(Nc5nccc(C(F)(F)F)n5)C(O)C4O)COCCC(=O)NCCOCC4OCC(Nc5nccc(C(F)(F)F)n5)C(O)C4O)nn3)CC1C(=O)NC(CC(=O)O)C(=O)N2 (stereo not drawn) [compound 76]
[1]; [5]
  Kd: < 100 nM
[2]
  Kd: < 100 nM
[4]; [6]
  EC50: < 100 nM
